Read-outs that look alike come from different tables or passages of the source.
Tests used:
[1] = target: NF-κB (p65) (Homo sapiens, UniProt Q04206); assay: Enzyme-based ELISA NF-κB; format: biochemical; settings: for NF-κB (p65) inhibitory activity (in words): ELISA assay; for times more potent than the control compound rocaglamide in NF-κB (p65) assay: relative to rocaglamide
[2] = test system: CCD-112CoN normal colon cell line; assay: Cytotoxicity against CCD-112CoN normal colon cell line; format: cell-based; settings: read-out: CCD112CoNl ED50
[3] = test system: human monocytic leukemia cell line MONO-MAC-1; settings: cited from earlier work
[4] = test system: human monocytic leukemia cell line MONO-MAC-6; settings: cited from earlier work
[5] = test system: HT-29 human colon cancer cells; assay: Cytotoxicity against HT-29 human colon cancer cells; format: cell-based; settings: relative to perviridisin B (2), ED50 0.46 µM
[6] = test system: LNCaP human prostate cancer cells; settings: cited from earlier work
[7] = NF-κB (p65) ED50, ELISA assay, ED50 > 20 µM inactive

Sequence of NF-κB (p65) (Q04206 whole entry): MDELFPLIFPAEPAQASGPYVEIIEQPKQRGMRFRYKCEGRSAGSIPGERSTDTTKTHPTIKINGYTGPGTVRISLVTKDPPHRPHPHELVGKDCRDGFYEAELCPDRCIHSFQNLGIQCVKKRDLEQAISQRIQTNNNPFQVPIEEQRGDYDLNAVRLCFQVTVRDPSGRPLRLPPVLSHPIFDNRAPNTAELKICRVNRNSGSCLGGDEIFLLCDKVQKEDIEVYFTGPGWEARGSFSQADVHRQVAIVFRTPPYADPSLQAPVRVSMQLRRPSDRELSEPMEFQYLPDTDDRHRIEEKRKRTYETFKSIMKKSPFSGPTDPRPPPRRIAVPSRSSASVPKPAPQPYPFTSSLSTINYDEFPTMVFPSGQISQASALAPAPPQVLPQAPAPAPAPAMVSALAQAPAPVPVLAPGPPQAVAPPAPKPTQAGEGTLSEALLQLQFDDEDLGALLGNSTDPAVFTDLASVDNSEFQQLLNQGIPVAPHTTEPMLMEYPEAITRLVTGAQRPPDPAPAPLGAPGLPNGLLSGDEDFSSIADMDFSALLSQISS

Structure (SMILES)	IC50 [1, 7] [µM]	IC50 [1] [µM]	CC50 [2] [µM]	also measured
CC1(C)[C@H](O)CC[C@]2(C)[C@H]3CC[C@@H]4[C@@H]([C@]5(C)CCC(=O)O5)CC[C@@]4(C)[C@]3(C)CC[C@@H]12 [cabraleahydroxylactone]	> 20			
COc1ccc(-c2oc3cc(OC)cc(OC)c3c(=O)c2O)cc1 [5,7,4′-tri-O-methylkaempferol]		> 20		
COC(=O)[C@H]1[C@@H](OC=O)[C@@]2(O)c3c(OC)cc(OC)cc3O[C@@]2(c2ccc(OC)cc2)[C@@H]1c1ccccc1 [Compound 15, methyl 1-formyloxyrocaglate]	> 20		> 50	
COc1ccc([C@@]23Oc4cc(OC)cc(OC)c4[C@]2(OC)[C@H](O)C[C@H]3c2ccccc2)cc1 [8b-O-methylrocaglaol]	> 20			cytotoxicity result in MONO-MAC-1 [3]: negative result; cytotoxicity result in MONO-MAC-6 [4]: negative result
COc1ccc([C@@]23Oc4cc(OC)cc(OC)c4[C@]2(O)[C@H](O)[C@H](C(=O)N(C)C)[C@H]3c2ccccc2)cc1 [rocaglamide, reference compound]			> 50	
COc1ccc([C@]23Oc4cc(OC)cc(OC)c4[C@](O)(C2O)[C@@H](c2ccccc2)[C@@H]3C(=O)NCCCCNC(=O)/C(C)=C/CO)cc1 (stereo partly shown) [Compound 2, perviridisin B]			> 50	NF-κB (p65) inhibitory activity (in words) [1]: significant NF-κB (p65) inhibitory activity; IC50 ([1]; NF-κB (p65) ED50): 2.4 µM
COc1cc(OC)c2c(c1)O[C@@]1(c3ccc4c(c3)OCO4)[C@H](c3ccccc3)C[C@@H](O)[C@@]21OC [Compound 3, 8b-O-methyl-4′-demethoxy-3′,4′-methylenedioxyrocaglaol]	> 20		> 50	
CC(C)[C@H]1CC[C@]2(C)C(=O)CCC(C=O)=C[C@H]12 [Compound 17, 2-oxaisodauc-5-en-12-al]		0.005		NF-κB (p65) inhibitory activity (in words) [1]: significant NF-κB (p65) inhibitory activity; times more potent than the control compound rocaglamide in NF-κB (p65) assay [1]: more than 10 times
CC(C)=C[C@H](O)[C@@H](O)[C@@H](CO)[C@H]1CC[C@@]2(C)[C@@H]3CC[C@H]4C(C)(C)[C@@H](O)CC[C@@]45C[C@@]35CC[C@]12C [argenteanol]	> 20			
COC(=O)[C@H]1[C@@H](O)[C@@]2(OC)c3c(OC)cc(OC)cc3O[C@@]2(c2ccc(OC)cc2)[C@@H]1c1ccccc1 [Compound 16, methyl 8b-O-methylrocaglate]	> 20		> 50	cytotoxicity result in MONO-MAC-1 [3]: negative result; cytotoxicity result in MONO-MAC-6 [4]: negative result
COC(=O)[C@H]1[C@@H](O)[C@@]2(OC)c3c(OC)cc(OC)cc3O[C@@]2(c2ccc3c(c2)OCO3)[C@@H]1c1ccccc1 [Compound 4, methyl 8b-O-methyl-4′-demethoxy-3′,4′-methylenedioxyrocaglate]	> 20		> 50	
COC(=O)[C@H]1[C@@H](O)[C@@]2(O)c3c(OC)cc(OC)cc3O[C@@]2(c2ccc(OC)cc2)[C@@H]1c1ccccc1 [Compound 10, methyl rocaglate]	> 20		> 50	
COc1cc(OC)c2c(c1)O[C@@]1(c3ccc4c(c3)OCO4)[C@H](c3ccccc3)C[C@@H](O)[C@@]21O [Compound 11, 4′-demethoxy-3′,4′-methylenedioxyrocaglaol]		0.33	> 50	NF-κB (p65) inhibitory activity (in words) [1]: significant NF-κB (p65) inhibitory activity
COc1ccc([C@@]23Oc4cc(OC)cc(OC)c4[C@]2(O)[C@H](O)[C@H](C(N)=O)[C@H]3c2ccccc2)cc1 [Compound 13, didesmethylrocaglamide]	> 20		> 50	
COC(=O)[C@H]1[C@@H](O)[C@@]2(O)c3c(OC)cc(OC)cc3O[C@@]2(c2ccc3c(c2)OCO3)[C@@H]1c1ccccc1 [Compound 12, methyl 4′-demethoxy-3′,4′-methylenedioxyrocaglate]		3.54	> 50	NF-κB (p65) inhibitory activity (in words) [1]: significant NF-κB (p65) inhibitory activity
COc1cc2ccc(=O)oc2cc1O [scopoletin]	> 20			
COc1ccc([C@]23Oc4cc(OC)cc(OC)c4[C@](O)(C2O)[C@@H](c2ccccc2)[C@@H]3C(=O)NCCCCNC(=O)/C(C)=C/CO)cc1 (stereo partly shown) [Compound 1, perviridisin A]	> 20			times less active than its C-10 epimer perviridisin B (2) against HT-29 cells [5]: over 25 times
CC1=CC(O)N(CCCCNC(=O)/C=C/c2ccccc2)C1=O (stereo not shown) [gigantamide A]		> 20		
COC(=O)[C@H]1[C@@H](OC=O)[C@@]2(O)c3c(OC)cc(OC)cc3O[C@@]2(c2ccc3c(c2)OCO3)[C@@H]1c1ccccc1 [Compound 14, methyl 1-formyloxy-4′-demethoxy-3′,4′-methylenedioxyrocaglate]			> 50	
COc1ccc([C@@]23Oc4cc(OC)cc(OC)c4[C@]2(O)[C@H](O)C[C@H]3c2ccccc2)cc1 [Compound 9, rocaglaol]		0.005	> 50	effect on LNCaP cells (cell cycle, apoptosis) [6]: cause G2/M-phase cell cycle arrest and to induce apoptosis; NF-κB (p65) inhibitory activity (in words) [1]: significant NF-κB (p65) inhibitory activity; times more potent than the control compound rocaglamide in NF-κB (p65) assay [1]: more than 10 times
